# Source: paper PMC8580319, “Dual activities of ACC synthase: Novel clues regarding the molecular evolution of ACS genes” (Science Advances, 2021)
# Key:
# Assay in all cases: pyruvate formation, […],4-dinitrophenylhydrazine, A520
# Assay type in all cases: biochemical
# Details in all cases: Cβ-S lyase activity; 4 mM L-cystine, 100 μM PLP, 30°C
# OsACS1 = molecular target: T1, OsACS1 (Oryza sativa, UniProt A2XLL2)
# T1 construct: gene ACC1; recombinant, His or GST tag, from E. coli
# T1 sequence (A2XLL2 1-487): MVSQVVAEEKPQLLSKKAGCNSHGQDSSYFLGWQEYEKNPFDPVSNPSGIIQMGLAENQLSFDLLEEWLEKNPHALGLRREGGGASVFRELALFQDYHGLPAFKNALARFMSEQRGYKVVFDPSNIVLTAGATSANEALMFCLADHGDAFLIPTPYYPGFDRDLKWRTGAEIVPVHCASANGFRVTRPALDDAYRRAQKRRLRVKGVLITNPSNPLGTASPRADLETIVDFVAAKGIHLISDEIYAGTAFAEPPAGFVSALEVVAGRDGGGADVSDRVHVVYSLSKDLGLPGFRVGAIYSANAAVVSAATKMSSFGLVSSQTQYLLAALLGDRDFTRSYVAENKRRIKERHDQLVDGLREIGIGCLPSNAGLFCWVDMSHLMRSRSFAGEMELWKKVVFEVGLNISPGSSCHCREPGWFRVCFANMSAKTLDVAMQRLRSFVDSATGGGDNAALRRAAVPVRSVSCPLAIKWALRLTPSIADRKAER
# MdACS1 = molecular target: T2, MdACS1 (Malus domestica, UniProt P37821)
# T2 construct: gene ACS-1; recombinant, His or GST tag, from E. coli
# T2 sequence (P37821 1-473): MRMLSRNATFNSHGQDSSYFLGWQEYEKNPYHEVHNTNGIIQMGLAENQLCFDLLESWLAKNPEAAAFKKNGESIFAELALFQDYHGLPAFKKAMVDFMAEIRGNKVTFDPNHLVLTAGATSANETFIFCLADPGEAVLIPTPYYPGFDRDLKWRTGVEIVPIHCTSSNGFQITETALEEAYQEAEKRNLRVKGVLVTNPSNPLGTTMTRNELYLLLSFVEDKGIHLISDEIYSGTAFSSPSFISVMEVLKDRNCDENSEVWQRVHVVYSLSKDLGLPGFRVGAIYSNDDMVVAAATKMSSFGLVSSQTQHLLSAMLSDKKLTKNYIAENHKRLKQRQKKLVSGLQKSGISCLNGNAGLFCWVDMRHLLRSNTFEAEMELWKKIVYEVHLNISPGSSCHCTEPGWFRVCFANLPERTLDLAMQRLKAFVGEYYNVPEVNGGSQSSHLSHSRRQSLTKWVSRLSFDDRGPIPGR
# SlACS4 = molecular target: T3, SlACS4 (Solanum lycopersicum, UniProt P29535)
# T3 construct: gene ACS4; recombinant, His or GST tag, from E. coli
# T3 sequence (P29535 whole entry): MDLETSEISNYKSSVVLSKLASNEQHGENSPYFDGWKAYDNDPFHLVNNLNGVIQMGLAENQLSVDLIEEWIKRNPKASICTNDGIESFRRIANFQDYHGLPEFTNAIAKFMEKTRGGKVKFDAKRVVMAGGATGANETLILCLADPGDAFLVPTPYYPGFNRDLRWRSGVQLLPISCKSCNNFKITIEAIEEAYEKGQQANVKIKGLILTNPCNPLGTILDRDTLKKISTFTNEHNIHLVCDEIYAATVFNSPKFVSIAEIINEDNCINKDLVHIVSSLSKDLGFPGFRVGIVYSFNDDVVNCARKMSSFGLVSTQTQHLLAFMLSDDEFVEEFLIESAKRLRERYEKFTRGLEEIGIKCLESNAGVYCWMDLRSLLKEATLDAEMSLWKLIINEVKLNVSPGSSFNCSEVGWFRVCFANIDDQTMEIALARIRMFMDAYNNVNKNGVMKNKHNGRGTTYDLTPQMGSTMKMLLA
smiles,measurement,setting,value
N[C@@H](CSSC[C@H](N)C(=O)O)C(=O)O [L-cystine],"pyruvate formation, 2,4-dinitrophenylhydrazine, A520",OsACS1,all of them had ACS and Cβ-S lyase dual enzymatic activities
same,"pyruvate formation, 2,4-dinitrophenylhydrazine, A520",MdACS1,MdACS1 indeed had both ACS and Cβ-S lyase activities in vitro
same,"pyruvate formation, 2,4-dinitrophenylhydrazine, A520",SlACS4,all of them had ACS and Cβ-S lyase dual enzymatic activities
